Reference: patent US12704493B2 (priority 2020, dated 2026)

Experiments:
[1] = system: electroactive microorganisms
[2] = system: electroactive microorganisms of the biosensor anode

O=S(=O)([O-])[O-].[Cu+2] [Cu, CuSO4]
change of open circuit voltage with each spike [1]: reduced

C=O [formaldehyde]
decrease in the estimated open circuit voltage [2]: ~90%
